Test results from article PMC7766327, “Inhibition of Pneumolysin Cytotoxicity by Hydrolysable Tannins” (Antibiotics, 2020).

Assays:
Ply = system: Ply; design: method as in PMID 15928084; conditions: cited from earlier work
pneumolysin (Ply) [1] = target: T1, pneumolysin (Ply) (Streptococcus pneumoniae serotype 2, UniProt Q04IN8); experiment: A549 cell cytotoxicity assay (LDH release); type: cell-based; conditions: 2 nM Ply, A549 cells, 2 h
T1 construct: made in house; host or cells: E. coli BL21(DE3)
Protocol: For the A549 cell cytotoxicity assay, 5000 cells/well of A549 cells were grown in Dulbecco’s modified Eagle Medium, DMEM (Thermo Fischer Scientific Inc., Waltham, MA, USA), 2 mM glutamine and 10% fetal calf serum (FCS) for 48 h in 96-well microtiter plates. Cells were washed with PBS and dilutions of PGG (0, 125, 250, 500, 1000 and 2000 nM) and 2 nM Ply in PBS were added to the wells and they were incubated for 2 h at 37 °C in 5% CO2 atmosphere. Ply cytotoxicity was determined with the Cytotoxicity Detection Kit^PLUS (Roche Diagnostics GmbH, Mannheim, Germany) according to the manufacturer’s instructions. The released LDH was measured at A490. Complete lysis control was measured in the presence of 0.02% Triton X-100, and for background measurements, cells were incubated without Ply. The values were normalized by calculating using the equation (A490 Ply+inhibitor − A490 Background)/(A490 Triton X-100 − A490 Background)(1)

pneumolysin (Ply) [2] = target: T1, pneumolysin (Ply); experiment: Precipitation assay of pneumolysin-tannin interaction; type: binding
Protocol: The precipitation assay with tannins was done as described previously with bovine serum albumin [22]. First, 10 μM of Ply and dilution series of polyphenols (5–1000 µM) were incubated in a Na-acetate buffer (200 mM NaCl and 50 mM CH3COONa; pH 5.0) at 25 °C for 30 min with shaking. The reactions were carried out in Multiskan Ascent plate reader (Labsystems, Vantaa, Finland) and the precipitation was measured at 414 nm. The minimum concentration precipitating Ply was calculated with Origin data analysis software (2016, OriginLab Corporation, Northampton, MA, USA).

pneumolysin (Ply) [3] = target: T1, pneumolysin (Ply); experiment: cell-based; type: cell-based
Protocol: Native human erythrocytes were taken into EDTA tubes. The erythrocytes were washed three times with PBS (0.15 M NaCl, 2.7 mM KCl, 8.1 mM Na2HPO4 and 1.5 mM KH2PO4) by centrifugation at 700× g for 10 min. The purified erythrocytes were stored at +4 °C. Erythrocytes (1% v/v) in PBS were mixed with 1 nM Ply and dilution series of polyphenol inhibitors in 96-well microtiter plates. The reaction was incubated for 30 min at 37 °C. The plates were centrifuged, and the supernatant was pipetted into flat-bottomed microtiter plates to measure the absorbance at 570 nm (VICTOR X4, PerkinElmer, Turku, Finland) of the released hemoglobin from lysed erythrocytes. The absorbances of triplicate measurements are presented as a function of inhibitor concentration. The IC50 values were calculated with Origin data analysis software (2016, OriginLab Corporation, Northampton, MA, USA).

pneumolysin (Ply) [4] = target: T1, pneumolysin (Ply); experiment: Pneumolysin oligomerization assay using erythrocytes; type: cell-based
Protocol: For the oligomerization assay, 100 nM Ply (3 µg), 1% (v/v) erythrocytes and 100 µM PGG in PBS were incubated for 2 min at 25 °C and were centrifuged at 16,000× g for 30 min at +7 °C. The pellet containing intact erythrocytes and the membranes from lysed cells were suspended into the water to complete the lysis and recentrifuged at 16,000× g for 30 min. The membranes were suspended into an SDS-PAGE sample buffer (60 mM Tris-HCl, pH 6.8; 2% SDS; 0.001% bromophenol blue; 0.5% β-mercaptoethanol) without incubation at 95 °C and the proteins were separated in 6% SDS-PAGE gel. The gel was stained with Coomassie blue (40% methanol; 10% acetic acid; 0.25% Brilliant blue R-250) and destained in 20% methanol and 5% acetic acid overnight. The proteins were transferred to polyvinyldifluoride (PVDF) membrane for 30 min, 25 V in SDS-PAGE running buffer (25 mM Tris, 190 mM glycine, 0.1% SDS) using the Trans-Blot Turbo Transfer System (Bio-Rad Laboratories Inc., Hercules, CA, USA). The membrane was blocked with 5% (w/v) defatted milk powder in TBS-Tween (10 mM Tris pH 7.5; 150 mM NaCl; 0.05% Tween 20) for 30 min at 25 °C. The His-tagged Ply was detected with anti-His antibody (1:5000 dilution, Sigma-Aldrich, St. Louis, MO, USA) and horseradish […] anti-mouse antibody (1:10,000 dilution, DakoCytomation, Glostrup, Denmark). […]

T1 sequence (Q04IN8 whole entry): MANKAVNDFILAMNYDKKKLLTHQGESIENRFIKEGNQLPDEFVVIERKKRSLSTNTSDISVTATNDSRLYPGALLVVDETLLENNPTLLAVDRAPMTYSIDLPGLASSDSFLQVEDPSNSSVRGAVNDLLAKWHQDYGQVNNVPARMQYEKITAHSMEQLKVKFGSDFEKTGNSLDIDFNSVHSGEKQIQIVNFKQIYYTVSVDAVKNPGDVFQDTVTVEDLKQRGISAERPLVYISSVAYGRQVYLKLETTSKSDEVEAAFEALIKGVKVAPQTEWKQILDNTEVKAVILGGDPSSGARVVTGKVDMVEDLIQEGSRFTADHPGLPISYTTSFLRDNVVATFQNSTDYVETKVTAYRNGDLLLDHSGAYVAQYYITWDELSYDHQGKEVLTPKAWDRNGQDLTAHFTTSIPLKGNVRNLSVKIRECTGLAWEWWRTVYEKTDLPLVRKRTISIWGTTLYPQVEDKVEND

Compound | Concentration required for inhibition of Ply hemolytic activity (Ply) | inhibition at 0.5 µM (pneumolysin (Ply) [1]; 500 nM PGG, compared to pneumolysin alone) [%] | inhibition at 1 µM (pneumolysin (Ply) [1]; 1000 nM PGG, compared to pneumolysin alone) [%] | inhibition at 2 µM (pneumolysin (Ply) [1]; 2000 nM PGG, compared to pneumolysin alone) [%] | Inhibition of LDH release (pneumolysin (Ply) [1]; ≤250 nM PGG) | Minimum Precipitating Concentration (pneumolysin (Ply) [2]; 10 μM Ply, Na-acetate buffer pH 5.0, 25 °C, 30 min, absorbance 414 nm) [µM] | Precipitation Relative Power (pneumolysin (Ply) [2]; fold compared to vescalagin (=1)) | Fold higher precipitating concentration compared to hemolysis IC50 (pneumolysin (Ply) [2]; minimum precipitating concentration vs hemolysis IC50) [fold] | Hemolysis Inhibition Inhibitory Power (pneumolysin (Ply) [3]) | IC50 (pneumolysin (Ply) [3]; Hemolysis Inhibition IC50, 1 nM Ply, 1% human erythrocytes, 30 min 37 °C, logistic fit) [nM] | IC50 (pneumolysin (Ply) [3]; IC50 (screening with hemolysis assays), estimated from the inhibition curves, two-fold dilutions of tannins) [nM] | Inhibitor class in hemolysis inhibition assay (pneumolysin (Ply) [3]; classification by IC50 from two-fold dilutions) | Ply oligomer complex on erythrocytes (pneumolysin (Ply) [4]; 100 µM PGG, 100 nM Ply, Coomassie-stained SDS-PAGE) | Concentration that still inhibited Ply oligomerization (pneumolysin (Ply) [4]; dilution series of PGG (0–100 µM), Western blotting with anti-His antibody) [µM]
O=C(O[C@@H]1Cc2c(O)cc(O)cc2O[C@@H]1c1cc(O)c(O)c(O)c1)c1cc(O)c(O)c(O)c1 [EGCG, epigallocatechin gallate] | micromolar concentrations were required | – | – | – | – | – | – | – | – | – | – | – | – | –
O=C(OC[C@H]1O[C@@H](OC(=O)c2cc(O)c(O)c(O)c2)[C@H](OC(=O)c2cc(O)c(O)c(O)c2)[C@@H](OC(=O)c2cc(O)c(O)c(O)c2)[C@@H]1OC(=O)c1cc(O)c(O)c(O)c1)c1cc(O)c(O)c(O)c1 [PGG, 1,2,3,4,6-penta-O-galloyl-β-D-glucose] | – | 60 | 87 | 90 | moderate inhibition | 14 | 58 | 770 | 13 | 18 ± 0.7 | 10 | potent (potent inhibitors (IC50 10–30 nM)) | abolished | 30
